Measurements published in patent publication US20090209619A1, “Depression of herg k+ channel function in mammallan cells and applications to the control of cancer cells division” (priority 2004, published 2009).
Marks after values point to notes of the source that are not given here.

Key:
HL-1 = assay: Cancer cell proliferation by population doubling time (PDT), HL-1; assay type: cell-based, murine; settings: blocker 1 μM; for population doubling time: 30 min in serum-free medium, cells counted 5 h and 48 h after seeding
Method: (§1) The human breast cancer cell lines MCF-7, BT132, and Sk-Br-3, human neuroblastoma cell line SHSY5Y, murine atrial tumor cell line HL-1 were used. These cell are known to express HERG channels. For chemical blocking of HERG conductance, tumor cells were incubated with dofetilide (1 μM), the anti-arrhythmic agent E4031 (1 μM) or cisapride (1 μM) for 30 min in serum-free medium. Control experiments wherein no dofetilide, no E-4031 and no cisapride was used were also performed.
(§2) Cell proliferation was assessed by characterizing the log phase growth with population doubling time (PDT) calculated by the equation: 1/(3.32*(log NH−log NI)/(t2−t1)), where NH is the number of cells harvested at the end of the growth period (at time t2) and NI is the number of cells at 5 hours (t1) after seed. Cells were counted by a flow cytometer (EPICS XL; Beckman Coulter Canada, Inc.), and the number obtained at 5 h (t1) after seeding was taken as an initial cell number (NI), and the number at 48 h (t2) after seeding was taken as an endpoint number (NH). The longer the PDT is, the slower the growth is.
(§3) In experiments involving interference RNA, in this case siRNA, the cells were transfected with siRNA using lipofectamine-2000 as a carrier to deliver the siRNA to the cells, according to the manufacturer's protocols. The sequence of our siRNA targeting HERG position 3498 bp is […] (SEQ ID NO:1). A negative control targeting the following sequence: […] (SEQ ID NO:2) has been used. The siRNA is designed as cassette using U6 as the promoter and its efficacy was validated by its ability to decrease HERG mRNA by around 78% determined by real-time RT-PCR. SiRNA targeting the following 2 target sequences: […] (SEQ ID 03) (starting at 255 bp) and […] (SEQ ID 04) (starting at 2609 bp) has also been tested. As an siRNA cassette is used, these sequences (SEQ ID 01-04) are also DNA sequences that are injected in the cells to produce in situ the siRNA that will interfere with expression of the HERG gene.

MCF-7 [1] = assay: Cancer cell proliferation by population doubling time (PDT), MCF-7; assay type: cell-based, human; settings: blocker 1 μM; for population doubling time: 30 min in serum-free medium, cells counted 5 h and 48 h after seeding
Method: as §1, §2, §3

Sk-Br-3 [2] = assay: Cancer cell proliferation by population doubling time (PDT), Sk-Br-3; assay type: cell-based, human; settings: blocker 1 μM; for population doubling time: 30 min in serum-free medium, cells counted 5 h and 48 h after seeding
Method: as §1, §2, §3

SK-BR-3 [3] = assay: Tumor growth in nude mice inoculated subcutaneously with SK-BR-3; settings: for tumor volume, Day 7 / tumor volume, Day 1: Sk-Br-3 tumor in nude mice, 5 μg/tumor single intratumoral injection; for tumor volume, Day 7: 7 days after treatment; for tumor volume, Day 1: day of treatment; for % changes of tumor volume over control: Sk-Br-3 tumor, 5 μg/tumor, day 7
SHSY5Y = assay: Cancer cell proliferation by population doubling time (PDT), SHSY5Y; assay type: cell-based, human; settings: blocker 1 μM; for population doubling time: 30 min in serum-free medium, cells counted 5 h and 48 h after seeding
Method: as §1, §2, §3

BT132 = assay: Cancer cell proliferation by population doubling time (PDT), BT132; assay type: cell-based, human; settings: blocker 1 μM; for population doubling time: 30 min in serum-free medium, cells counted 5 h and 48 h after seeding
Method: as §1, §2, §3

MCF-7 [4] = assay: Tumor growth in nude mice inoculated subcutaneously with MCF-7; settings: for tumor volume, Day 7 / tumor volume, Day 1: MCF-7 tumor in nude mice, 5 μg/tumor single intratumoral injection; for tumor volume, Day 7: 7 days after treatment; for tumor volume, Day 1: day of treatment; for % changes of tumor volume over control: MCF-7 tumor, 5 μg/tumor, day 7
MCF-7 cells = settings: cited from earlier work
EAG = biological target: T1, EAG (Homo sapiens, UniProt O95259); settings: extracellular perfusion; cited from earlier work
T1 sequence (O95259 1-989): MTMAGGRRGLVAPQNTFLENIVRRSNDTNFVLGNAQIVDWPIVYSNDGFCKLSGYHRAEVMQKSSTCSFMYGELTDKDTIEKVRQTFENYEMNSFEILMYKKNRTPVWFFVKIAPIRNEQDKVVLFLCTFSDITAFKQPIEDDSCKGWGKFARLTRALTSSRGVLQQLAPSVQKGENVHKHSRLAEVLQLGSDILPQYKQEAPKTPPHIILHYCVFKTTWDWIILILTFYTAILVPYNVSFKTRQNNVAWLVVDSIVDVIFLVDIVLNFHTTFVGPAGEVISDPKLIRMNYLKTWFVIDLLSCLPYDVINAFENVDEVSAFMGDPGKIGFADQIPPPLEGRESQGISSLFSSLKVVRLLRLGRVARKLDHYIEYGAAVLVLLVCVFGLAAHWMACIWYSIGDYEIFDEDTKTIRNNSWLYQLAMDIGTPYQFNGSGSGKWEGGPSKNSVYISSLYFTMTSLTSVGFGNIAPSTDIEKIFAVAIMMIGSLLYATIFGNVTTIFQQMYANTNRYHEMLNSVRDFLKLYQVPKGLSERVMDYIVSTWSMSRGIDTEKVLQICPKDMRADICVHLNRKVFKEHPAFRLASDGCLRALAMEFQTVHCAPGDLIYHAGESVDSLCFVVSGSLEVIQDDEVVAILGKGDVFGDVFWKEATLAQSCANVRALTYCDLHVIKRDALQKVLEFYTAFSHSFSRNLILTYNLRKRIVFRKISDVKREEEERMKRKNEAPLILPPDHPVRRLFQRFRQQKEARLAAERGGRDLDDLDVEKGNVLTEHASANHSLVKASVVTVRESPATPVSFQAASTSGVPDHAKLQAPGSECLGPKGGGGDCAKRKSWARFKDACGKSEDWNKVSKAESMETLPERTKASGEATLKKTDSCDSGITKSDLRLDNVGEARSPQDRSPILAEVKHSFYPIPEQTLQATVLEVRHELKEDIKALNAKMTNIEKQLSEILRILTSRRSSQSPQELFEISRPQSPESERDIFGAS

Compound | % changes of population doubling time over control (HL-1) | population doubling time (HL-1) | % changes of population doubling time over control (MCF-7 [1]) | population doubling time (MCF-7 [1]) | % changes of population doubling time over control (Sk-Br-3 [2]) | population doubling time (Sk-Br-3 [2]) | tumor volume, Day 7 (SK-BR-3 [3]) | tumor volume, Day 1 (SK-BR-3 [3]) | % changes of tumor volume over control (SK-BR-3 [3]) | % changes of population doubling time over control (SHSY5Y) | population doubling time (SHSY5Y) | % changes of population doubling time over control (BT132) | population doubling time (BT132) | tumor volume, Day 7 (MCF-7 [4]) | tumor volume, Day 1 (MCF-7 [4]) | % changes of tumor volume over control (MCF-7 [4]) | effect on growth/proliferation of MCF-7 human breast cancer cells (MCF-7 cells) | inhibition of cell proliferation (MCF-7 cells; extracellular perfusion, cell line not given) | inhibition of EAG current (EAG)
COc1cc(N)c(Cl)cc1C(=O)NC1CCN(CCCOc2ccc(F)cc2)CC1OC (stereo not shown) [Cisapride, cisapride] | 47% | 100.3 ± 9.8* hours | 58% | 71.7 ± 7.3* hours | 114% | 174.3 ± 17.7* hours | 3.1 ± 0.3^+ cm^3 | 2.4 ± 1.3 cm^3 | −45% | 57% | 92.0 ± 8.3* hours | 62% | 88.1 ± 9.0* hours | 3.0 ± 0.4^+ cm^3 | 3.2 ± 0.5 cm^3 | −42% | – | – | –
CN(CCOc1ccc(NS(C)(=O)=O)cc1)CCc1ccc(NS(C)(=O)=O)cc1 [Dofetilide, dofetilide] | 30% | 85.5 ± 9.2 h | 55% | 70.4 ± 6.2* hours | 128% | 184.0 ± 16.6* hours | – | – | – | 59% | 95.2 ± 10.2* hours | 56% | 84.8 ± 7.5* hours | – | – | – | – | – | –
Cc1cccc(CCN2CCC(C(=O)c3ccc(NS(C)(=O)=O)cc3)CC2)n1 [E-4031] | 37% | 93.5 ± 10.0* hours | 43% | 64.9 ± 11.5* hours | 98% | 165.3 ± 15.2* hours | 4.1 ± 0.6*^+ cm^3 | 2.1 ± 1.0 cm^3 | −28% | 70% | 101.8 ± 11.5* hours | 48% | 80.5 ± 8.2* hours | 3.7 ± 0.8^+ cm^3 | 3.5 ± 0.6 cm^3 | −30% | – | – | –
Cc1cc(N)c2ccccc2[n+]1CCCCCCCCCC[n+]1c(C)cc(N)c2ccccc21 [dequalinium] | – | – | – | – | – | – | – | – | – | – | – | – | – | – | – | – | inhibitory effects | – | –
COc1ccc(CCN2CCC(Nc3nc4ccccc4n3Cc3ccc(F)cc3)CC2)cc1 [astemizole] | – | – | – | – | – | – | – | – | – | – | – | – | – | – | – | – | – | ~23% | ~20%
CCCCc1oc2ccccc2c1C(=O)c1cc(I)c(OCCN(CC)CC)c(I)c1 [amiodarone] | – | – | – | – | – | – | – | – | – | – | – | – | – | – | – | – | inhibitory effects | – | –
